The results in this text go back to ChEMBL document CHEMBL1156723, “Structure-activity relationship study on a novel series of cyclopentane-containing macrocyclic inhibitors of the hepatitis C virus NS3/4A protease leading to the discovery of TMC435350” (Bioorg Med Chem Lett, 2008).

By Ki is commonly meant the equilibrium dissociation constant of an inhibitor or competing ligand from its target. Broadly, the microsomal CLint is a measure of how fast metabolising enzymes remove a compound, apart from limits set by blood flow. One may read the EC50 as the concentration that produces a half-maximal response. One may read the AUC as concentration integrated over time. As usually defined, the Cmax is the peak of the concentration-time curve. Broadly, the bioavailability is dose-corrected exposure relative to a reference, in per cent. A lower bioavailability goes with little systemic uptake. Usually Tmax stands for the time from dosing to the highest level. The half-life is how long it takes for the measured level to halve. Lower therefore signals rapid decline. As a reminder, the Kp is the ratio of the level in a tissue or fluid to that in plasma or blood.

Data set [1] in a line: Inhibition of recombinant full length HCV NS3/4A protease. Also noted: species or system Hepacivirus hominis.
Data set [2] is described as follows: Metabolic stability in human liver microsomes assessed as intrinsic clearance. In kind it is ADME, Microsome. (In general: Liver microsomes are vesicles of endoplasmic reticulum, rich in cytochrome P450 enzymes.)
In data set [3] the test system is Hepatitis C virus. As to the kind of experiment: Antiviral activity against HCV in human Huh7 cells assessed as luciferase activity. The class given is functional, organism-based, Hepacivirus hominis. The following applies: Huh-7.
A short description of data set [4]: Volume of distribution at steady state in Sprague-Dawley rat at 2 mg/kg, iv. In kind it is ADME, organism-based. Also noted: dose 2 mg/kg, route intravenous. The following applies: in vivo, read-out: Vdss.
Data set [5] in a line: Clearance in Sprague-Dawley rat at 2 mg/kg, iv. The settings on record: in vivo. In kind it is ADME, organism-based. Also on record: dose 2 mg/kg, route intravenous.
The nature of data set [6]: AUC in Sprague-Dawley rat at 10 mg/kg, po. In kind it is ADME, organism-based. The following applies: plasma. Also on record: dose 10 mg/kg, route oral.
A short description of data set [7]: AUC in Sprague-Dawley rat at 2 mg/kg, iv. The following applies: plasma. The class given is ADME, organism-based. Also on record: dose 2 mg/kg, route intravenous.
Data set [8] in a line: Cmax in Sprague-Dawley rat at 10 mg/kg, po. The class given is ADME, organism-based. Also noted: dose 10 mg/kg, route oral. The following applies: in vivo.
The nature of data set [9]: Oral bioavailability in Sprague-Dawley rat at 10 mg/kg, po. The following applies: in vivo. In kind it is ADME, organism-based.
Data set [10] is described as follows: Tmax in Sprague-Dawley rat at 10 mg/kg, po. Also on record: dose 10 mg/kg, route oral. The following applies: in vivo. In kind it is ADME, organism-based.
Data set [11] in a line: Half life in Sprague-Dawley rat at 10 mg/kg, po. The class given is ADME, organism-based. Also noted: dose 10 mg/kg, route oral. The settings on record: in vivo.
Data set [12] can be described thus: Bile excretion of compound in rat at 1 mg/kg, iv after 1 hr. In kind it is ADME, organism-based. Also on record: dose 1 mg/kg, route intravenous. The settings on record: read-out: Activity.
In data set [13] the test system is Liver microsomes. As to the kind of experiment: Metabolic stability in rat liver microsomes assessed as intrinsic clearance. In kind it is ADME, Microsome.
Data set [14] can be described thus: Ratio of drug level in liver to plasma in Sprague-Dawley rat at 10 mg/kg, po after 8 hrs. The class given is ADME, organism-based. Also on record: dose 10 mg/kg, route oral.
A short description of data set [15]: Ratio of drug level in liver to plasma in Sprague-Dawley rat at 2 mg/kg, iv after 8 hrs. In kind it is ADME, organism-based. Also noted: dose 2 mg/kg, route intravenous.
Data set [16] can be described thus: Ratio of drug level in liver to plasma in Sprague-Dawley rat at 2 mg/kg, iv after 6 hrs. The class given is ADME, organism-based. Also noted: dose 2 mg/kg, route intravenous.
A short description of data set [17]: Ratio of drug level in liver to plasma in Sprague-Dawley rat at 10 mg/kg, po after 6 hrs. The class given is ADME, organism-based. Also on record: dose 10 mg/kg, route oral.

Regarding `COc1ccc2c(O[C@@H]3C[C@H]4C(=O)N[C@]5(C(=O)NS(=O)(=O)C6CC6)C[C@H]5/C=C\CCCCN(C)C(=O)[C@@H]4C3)cc(-c3nccs3)nc2c1`, the Ki in [1] amounted to 0.2 nM. The microsomal CLint in [2] was determined as 38 µL/min/mg. The EC50 in [3] is 11 nM.

On to `COc1ccc2c(O[C@@H]3C[C@H]4C(=O)N[C@]5(C(=O)NS(=O)(=O)C6CC6)C[C@H]5/C=C\CCCCN(C)C(=O)[C@@H]4C3)cc(-c3nc(C(C)C)cs3)nc2c1`, for which the Ki in data set [1] amounted to 0.84 nM. The microsomal CLint in [2] was found to be 16 µL/min/mg. Besides, the EC50 in data set [3] was 17 nM.

As to `C=C[C@@H]1C[C@]1(NC(=O)[C@@H]1C[C@@H](Oc2cc(-c3ccccc3)nc3cc(OC)ccc23)C[C@H]1C(=O)N[C@H](C(=O)N[C@H](C(=O)NC)C1CCCCC1)C(C)(C)C)C(=O)O`, in data set [1], the Ki was 22 nM.

Consider `COc1ccc2c(O[C@@H]3C[C@H]4C(=O)N[C@]5(C(=O)NS(=O)(=O)C6CC6)C[C@H]5/C=C\CCCCN(C)C(=O)[C@@H]4C3)cc(-c3cccc(C(C)C)n3)nc2c1C`, for which the Vd in data set [4] was determined as 0.7 L/kg. The clearance in data set [5] was 23.3 mL/min/kg. For the same compound, the Ki in data set [1] worked out at 0.3 nM. The values for the AUC in data set [6] and in data set [7] were 1.4 µM·h and 1.36 µM·h, respectively. The Cmax in data set [8] was determined as 300 nM. Moreover, the bioavailability in data set [9] is 31%. In addition, the microsomal CLint in data set [2] is < 6 µL/min/mg. Moreover, in data set [10], the Tmax worked out at 2 h. The compound also gave a half-life in data set [11] of 5.8 h. In data set [3], the EC50 was 6.8 nM.

Turning to `CCc1c(OC)ccc2c(O[C@@H]3C[C@H]4C(=O)N[C@]5(C(=O)NS(=O)(=O)C6CC6)C[C@H]5/C=C\CCCCN(C)C(=O)[C@@H]4C3)cc(-c3nc(C(C)C)cs3)nc12`, in [1], the Ki was determined as 3.1 nM. Further, the EC50 in data set [3] was determined as 66 nM.

Consider `COc1ccc2c(O[C@@H]3C[C@H]4C(=O)N[C@]5(C(=O)NS(=O)(=O)C6CC6)C[C@H]5/C=C\CCCCN(C)C(=O)[C@@H]4C3)cc(-c3nc(C(C)C)cs3)nc2c1Cl`, for which, in data set [1], the Ki worked out at 0.1 nM. In data set [2], the microsomal CLint amounted to 9 µL/min/mg. In addition, the EC50 in data set [3] amounted to 2.9 nM.

`COc1ccc2c(O[C@@H]3C[C@H]4C(=O)N[C@]5(C(=O)NS(=O)(=O)C6CC6)C[C@H]5/C=C\CCCCN(C)C(=O)[C@@H]4C3)cc(-c3ccccc3)nc2c1`: the Ki in [1] stood at 0.41 nM. Also, the dose excreted at 1 h in data set [12] is 95%. The microsomal CLint in data set [2] came out at 46 µL/min/mg. Also, the EC50 in data set [3] was found to be 9 nM. The clearance in [13] was found to be 46 µL/min/mg.

In the case of `COc1ccc2c(O[C@@H]3C[C@H]4C(=O)N[C@]5(C(=O)NS(=O)(=O)C6CC6)C[C@H]5/C=C\CCCCN(C)C(=O)[C@@H]4C3)cc(-c3nc(C(C)C)cs3)nc2c1F`, the Ki in data set [1] worked out at 0.55 nM. For the same compound, the EC50 in data set [3] was 57 nM.

Take `COc1ccc2c(O[C@@H]3C[C@H]4C(=O)N[C@]5(C(=O)NS(=O)(=O)C6CC6)C[C@H]5/C=C\CCCCN(C)C(=O)[C@@H]4C3)cc(-n3ccc(C(C)C)n3)nc2c1C`: in [4], the Vd turned out to be 4.6 L/kg. Besides, the clearance in [5] is 41.7 mL/min/kg. Besides, the Ki in [1] came out at 0.16 nM. Besides, the AUC came to 1.3 µM·h in [6] and 1.05 µM·h in data set [7]. The Cmax in data set [8] was 310 nM. In [9], this compound registered a bioavailability of 25%. Besides, the values for the Kp at 8 h in data set [14] and in data set [15] were 44 and 23.5, respectively. For the same compound, the microsomal CLint in [2] is < 6 µL/min/mg. For the same compound, in data set [10], the Tmax came to 1.5 h. The half-life in [11] is 2.2 h. Besides, in data set [3], the half-maximal effective concentration (EC50) worked out at 9.7 nM.

Consider `COc1ccc2c(O[C@@H]3C[C@H]4C(=O)N[C@]5(C(=O)NS(=O)(=O)C6CC6)C[C@H]5/C=C\CCCCN(C)C(=O)[C@@H]4C3)cc(-c3csc(NC(C)C)n3)nc2c1`, for which the Ki in [1] is 1.4 nM. In addition, the microsomal CLint in data set [2] is 15 µL/min/mg. Also, the EC50 in data set [3] turned out to be 17 nM.

Take `COc1ccc2c(O[C@@H]3C[C@H]4C(=O)N[C@]5(C(=O)NS(=O)(=O)C6CC6)C[C@H]5/C=C\CCCCN(C)C(=O)[C@@H]4C3)cc(-c3nc(C(C)C)cs3)nc2c1C` [SIMEPREVIR]: the Vd in data set [4] stood at 0.49 L/kg. The compound also had a clearance in data set [5] of 8.42 mL/min/kg. The inhibitory constant (Ki) in data set [1] came to 0.36 nM. Besides, the AUC was 2.79 µM·h in data set [6] and 5.21 µM·h in [7]. The compound further registered a Cmax in [8] of 730 nM. The same compound displayed a bioavailability in data set [9] of 11%. For the same compound, in data set [2], the microsomal CLint is < 6 µL/min/mg. For the same compound, in data set [10], the Tmax was found to be 3 h. In addition, the figures for the Kp at 6 h in [16] and in [17] were 63.5 and 32, respectively. The compound also gave a half-life in [11] of 2.8 h. For the same compound, in data set [3], the EC50 is 7.8 nM.
